Literature values in patent US20060052354A1, “Methods for treating migraine” (Corcept Therapeutics, Inc., priority 2002, published 2006).

How the values were obtained:
[1] = in one study (Kawai)
[2] = target: T1, glucocorticoid (GR) receptors (Homo sapiens, UniProt P04150)
T1 sequence (P04150 1-777): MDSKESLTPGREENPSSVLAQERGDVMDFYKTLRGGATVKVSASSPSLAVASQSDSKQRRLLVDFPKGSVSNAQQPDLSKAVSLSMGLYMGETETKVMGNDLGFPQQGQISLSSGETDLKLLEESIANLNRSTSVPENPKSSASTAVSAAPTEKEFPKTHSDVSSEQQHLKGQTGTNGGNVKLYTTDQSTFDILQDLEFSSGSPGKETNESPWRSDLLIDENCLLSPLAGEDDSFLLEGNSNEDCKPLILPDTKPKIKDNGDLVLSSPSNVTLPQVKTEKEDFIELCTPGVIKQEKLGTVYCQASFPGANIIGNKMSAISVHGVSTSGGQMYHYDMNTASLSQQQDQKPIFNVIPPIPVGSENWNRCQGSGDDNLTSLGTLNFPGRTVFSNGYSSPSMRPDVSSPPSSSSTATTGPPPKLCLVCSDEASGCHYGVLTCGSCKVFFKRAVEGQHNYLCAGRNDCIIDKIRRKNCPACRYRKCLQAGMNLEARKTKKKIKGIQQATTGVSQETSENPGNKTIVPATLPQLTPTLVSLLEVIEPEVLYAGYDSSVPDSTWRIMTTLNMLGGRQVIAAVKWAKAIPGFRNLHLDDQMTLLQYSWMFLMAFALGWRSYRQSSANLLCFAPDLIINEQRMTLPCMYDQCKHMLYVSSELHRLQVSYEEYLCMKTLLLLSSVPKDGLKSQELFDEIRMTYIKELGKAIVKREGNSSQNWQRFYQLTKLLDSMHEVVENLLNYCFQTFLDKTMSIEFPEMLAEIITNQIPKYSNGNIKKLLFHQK

progesterone receptor = target: T2, progesterone receptor (Homo sapiens, UniProt P06401)
T2 sequence (P06401 1-933): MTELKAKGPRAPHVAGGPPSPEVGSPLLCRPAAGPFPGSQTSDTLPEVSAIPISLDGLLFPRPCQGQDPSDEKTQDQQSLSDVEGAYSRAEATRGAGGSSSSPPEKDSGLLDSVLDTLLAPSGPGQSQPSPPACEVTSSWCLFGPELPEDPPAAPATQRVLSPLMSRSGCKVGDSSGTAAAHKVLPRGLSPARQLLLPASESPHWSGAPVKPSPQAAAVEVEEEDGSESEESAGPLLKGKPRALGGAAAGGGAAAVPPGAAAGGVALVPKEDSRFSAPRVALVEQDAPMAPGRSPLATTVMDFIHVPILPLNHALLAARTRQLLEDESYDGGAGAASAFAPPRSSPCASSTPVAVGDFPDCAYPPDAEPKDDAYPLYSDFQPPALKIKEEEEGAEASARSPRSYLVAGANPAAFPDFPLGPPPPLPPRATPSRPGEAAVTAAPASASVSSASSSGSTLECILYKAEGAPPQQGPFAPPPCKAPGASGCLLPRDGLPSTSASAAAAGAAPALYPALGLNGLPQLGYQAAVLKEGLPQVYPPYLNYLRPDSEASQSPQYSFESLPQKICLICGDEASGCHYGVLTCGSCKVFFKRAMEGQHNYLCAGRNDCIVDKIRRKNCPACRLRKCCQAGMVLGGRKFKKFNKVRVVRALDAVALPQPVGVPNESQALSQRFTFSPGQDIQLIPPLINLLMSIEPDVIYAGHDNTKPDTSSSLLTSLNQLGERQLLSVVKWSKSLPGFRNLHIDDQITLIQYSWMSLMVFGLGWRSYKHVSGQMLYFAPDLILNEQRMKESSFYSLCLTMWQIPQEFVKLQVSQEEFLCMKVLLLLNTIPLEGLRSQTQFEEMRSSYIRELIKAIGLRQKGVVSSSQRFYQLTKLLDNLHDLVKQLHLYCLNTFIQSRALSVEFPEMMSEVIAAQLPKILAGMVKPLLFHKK

[3] = target: T3, Mineralocorticoid receptors (MRs) (Homo sapiens, UniProt P08235); conditions: MR versus GR
T3 sequence (P08235 1-984): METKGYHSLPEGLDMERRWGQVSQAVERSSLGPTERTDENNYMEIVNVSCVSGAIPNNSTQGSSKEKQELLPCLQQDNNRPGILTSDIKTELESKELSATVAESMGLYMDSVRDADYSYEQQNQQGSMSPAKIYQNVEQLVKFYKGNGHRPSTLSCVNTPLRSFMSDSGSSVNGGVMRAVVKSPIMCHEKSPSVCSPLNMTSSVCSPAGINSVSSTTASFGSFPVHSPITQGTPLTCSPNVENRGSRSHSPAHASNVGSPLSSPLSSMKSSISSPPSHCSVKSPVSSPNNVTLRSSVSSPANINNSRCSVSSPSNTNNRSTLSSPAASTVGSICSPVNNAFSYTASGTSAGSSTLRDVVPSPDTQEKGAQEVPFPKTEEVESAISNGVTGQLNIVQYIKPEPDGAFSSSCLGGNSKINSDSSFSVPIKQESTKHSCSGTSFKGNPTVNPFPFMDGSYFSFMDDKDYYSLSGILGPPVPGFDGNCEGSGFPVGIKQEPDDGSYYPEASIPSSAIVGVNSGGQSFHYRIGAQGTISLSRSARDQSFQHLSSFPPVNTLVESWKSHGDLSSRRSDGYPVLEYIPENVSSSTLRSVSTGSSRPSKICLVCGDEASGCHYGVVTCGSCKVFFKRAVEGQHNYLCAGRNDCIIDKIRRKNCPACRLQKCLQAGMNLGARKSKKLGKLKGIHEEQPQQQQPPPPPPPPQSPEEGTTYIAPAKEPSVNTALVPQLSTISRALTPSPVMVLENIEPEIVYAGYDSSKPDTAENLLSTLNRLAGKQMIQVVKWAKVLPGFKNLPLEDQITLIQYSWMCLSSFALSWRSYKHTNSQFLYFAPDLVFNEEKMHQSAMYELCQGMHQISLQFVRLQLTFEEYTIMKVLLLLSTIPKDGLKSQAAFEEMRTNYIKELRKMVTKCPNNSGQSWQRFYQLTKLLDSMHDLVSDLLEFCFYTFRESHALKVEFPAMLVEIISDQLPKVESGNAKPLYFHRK

affinity of MRs for cortisol relative to GRs for glucocorticoids [3] | SMILES | daily dose excreted in the urine [1] | antagonist of the glucocorticoid (GR) receptor [2] | antagonist of the progesterone receptor (progesterone receptor)
 | CC#C[C@]1(O)CC[C@H]2[C@@H]3CCC4=CC(=O)CCC4=C3[C@@H](c3ccc(N(C)C)cc3)C[C@@]21C [Mifepristone, (11β,17β) 11 [4 (dimethylamino)phenyl]-17 hydroxy-17 (1 propynyl)estra-4,9 dien-3 one] | less than 0.5% | powerful antagonist | powerful antagonist
 | CC#C[C@]1(O)CC[C@H]2[C@@H]3CCC4=CC(=O)CCC4=C3[C@@H](c3ccc(OCCN(C)C)cc3)C[C@@]21C [RU009, 11β-(4-dimethylaminoethoxyphenyl)-17α-propynyl-17β-hydroxy-4,9-estradien-3-one] |  | GR antagonist effects | 
ten-fold | C[C@]12CCC(=O)C=C1CC[C@@H]1[C@@H]2[C@@H](O)C[C@@]2(C)[C@H]1CC[C@]2(O)C(=O)CO [cortisol] |  |  | 
